Measured values: patent US20250201546A1, “METHOD FOR PROCESSING SUBSTRATE, KIT FOR PROCESSING SUBSTRATE, AND METHOD FOR MANUFACTURING SEMICONDUCTOR SUBSTRATE” (TOKYO OHKA KOGYO CO., LTD., priority 2023, published 2025)

Test: Hansen solubility parameter (SP value and terms) of reagents
Type: physicochemical
Set-up: unit: MPa^0.5
Conditions: SP^2=δD^2+δP^2+δH^2
Source text: The SP value of Hansen solubility parameter herein is a value obtained by dividing the solubility parameter introduced by Hildebrand into three parameters, the dispersion term OD, the polarity term OP, and the hydrogen bond term OH, and plotting a point in a three-dimensional space (Hansen space, HSP space).
The dispersion term δD represents the effect due to dispersion force, the polarity term δP represents the effect due to dipole-dipole force, and the hydrogen bond term OH represents the effect due to hydrogen bond force. […]
δD: The energy derived from dispersion forces between molecules (the dispersion term) δP: The energy derived from polar forces between molecules (the polarity term) δH: The energy derived from hydrogen bond forces between molecules (the hydrogen bond term) The unit of each of the terms is MPa^0.5.
There is a relationship between Hildebrand's SP value and Hansen's HSP as shown below.
(Hildebrand's SP)^2=δD^2+δP^2+δH^2
Suitable examples of the silane coupling agent having a SP value of 15 or more may include the followings. Needless to say, the silane coupling agent used in the present embodiment is not limited to those below.

Row | Structure (SMILES) | SP value
1 | CCO[Si](CCCNCCN)(OCC)OCC [AEAPTES, 3-(2-aminoethylamino) propyltriethoxysilane] | 15.6
2 | CO[Si](CCCNCCN)(OC)OC [AEAPTMS, 3-(2-aminoethylamino) propyltrimethoxysilane] | 16.2
3 | CO[Si](CCCNCCCCCCN)(OC)OC [AHAPTMS, 3-(6-aminohexylamino) propyltrimethoxysilane] | 15.3
4 | CCO[Si](CCCN)(OCC)OCC [APTES, 3-aminopropyltriethoxysilane] | 15.2
5 | CO[Si](CCCN)(OC)OC [APTMS, 3-aminopropyltrimethoxysilane] | 15.8
6 | CO[Si](C)(OC)OC [MTMS, methyltrimethoxysilane] | 15.2
